Tests used:
Assay in all cases: relative viability (nuclei count vs DMSO), 5 days (fraction); higher = more cells survive
NVP-TAE684 + Trametinib = compound: COc1cc(N2CCC(N3CCN(C)CC3)CC2)ccc1Nc1ncc(Cl)c(Nc2ccccc2S(=O)(=O)C(C)C)n1 [NVP-TAE684] + CC(=O)Nc1cccc(-n2c(=O)n(C3CC3)c(=O)c3c(Nc4ccc(I)cc4F)n(C)c(=O)c(C)c32)c1 [Trametinib] (partner 0.02 µM)
Summary of the method: (§1)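 Nuclei were stained with Hoechst during a one-step fixation (final 0.05% Triton X-100, 1% formaldehyde, 1 ug/ml Hoechst) carried out 5 days after dosing, then counted on 4× images. The cells, lung cancer lines in 1536-well plates, had been dosed by pin tool the day after seeding with one drug alone or a fixed anchor-drug dose plus five library-drug doses (not always all listed) in √10 steps. Relative viability is the nuclei count in treated wells divided by that in vehicle wells, and each value is the median of duplicate plates.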

CUDC-101 + Lapatinib = compound: C#Cc1cccc(Nc2ncnc3cc(OC)c(OCCCCCCC(=O)NO)cc23)c1 [CUDC-101] + CS(=O)(=O)CCNCc1ccc(-c2ccc3ncnc(Nc4ccc(OCc5cccc(F)c5)c(Cl)c4)c3c2)o1 [Lapatinib] (partner 2 µM)
Summary of the method: as §1

NVP-TAE684 + Linsitinib = compound: COc1cc(N2CCC(N3CCN(C)CC3)CC2)ccc1Nc1ncc(Cl)c(Nc2ccccc2S(=O)(=O)C(C)C)n1 [NVP-TAE684] + C[C@]1(O)C[C@@H](c2nc(-c3ccc4ccc(-c5ccccc5)nc4c3)c3c(N)nccn32)C1 [Linsitinib] (partner 1 µM)
Summary of the method: as §1

[1] = compound: C1=CC=C2C(=C1)N=C(S2)C(C#N)C3=NC(=NC=C3)NCCC4=CN=CC=C4 + COc1cc2c(Oc3ccc(NC(=O)C4(C(=O)Nc5ccc(F)cc5)CC4)cc3F)ccnc2cc1OCCCN1CCOCC1 [Foretinib] (partner 0.25 µM)
Summary of the method: as §1

Cell Line	relative viability (NVP-TAE684 + Trametinib; first compound 0.2 µM)	relative viability (NVP-TAE684 + Trametinib; first compound 0.6325 µM)	relative viability (NVP-TAE684 + Trametinib; first compound 2 µM)	relative viability (CUDC-101 + Lapatinib; first compound 0.01 µM)	relative viability (CUDC-101 + Lapatinib; first compound 0.03162 µM)	relative viability (CUDC-101 + Lapatinib; first compound 0.1 µM)	relative viability (CUDC-101 + Lapatinib; first compound 0.3162 µM)	relative viability (CUDC-101 + Lapatinib; first compound 1 µM)	relative viability (NVP-TAE684 + Linsitinib; first compound 0.2 µM)	relative viability (NVP-TAE684 + Linsitinib; first compound 2 µM)	relative viability ([1]; first compound 0.005 µM)	relative viability ([1]; first compound 0.01581 µM)	relative viability ([1]; first compound 0.05 µM)	relative viability ([1]; first compound 0.1581 µM)	relative viability ([1]; first compound 0.5 µM)	relative viability (NVP-TAE684 + Linsitinib; first compound 0.6325 µM)
COR-L 105	0.439	0.42	0.313	0.425	0.356	0.316	0.264	0.226	0.915	0.625	0.802	1.12	0.963	1.26	0.878	–
EKVX	0.285	0.241	0.334	0.255	0.199	0.22	0.203	0.169	0.896	0.709	0.8	0.833	0.83	0.79	0.777	0.897
EMC-BAC-2	0.89	0.822	0.47	0.836	0.88	0.909	0.974	0.485	0.771	0.51	0.946	1.01	0.994	1.03	1.03	–
EPLC-272H	0.296	0.25	0.243	1.13	0.987	1	0.392	0.482	1.08	1.3	0.588	0.586	0.673	1	0.585	–
H3255	0.569	0.611	0.631	0.244	0.248	0.24	0.248	0.174	0.903	0.69	0.988	0.879	0.848	1.09	0.963	0.927
HARA	0.575	0.69	0.155	0.739	0.789	0.739	0.71	0.453	0.985	0.474	0.869	0.876	0.831	0.975	0.786	0.929
HCC-15	0.355	0.418	0.186	0.857	0.908	0.831	0.845	0.698	0.84	0.601	0.853	1.07	0.984	1.2	1.01	0.866
HCC-78	0.603	0.57	0.401	0.882	0.92	0.808	0.701	0.631	0.403	0.294	0.473	0.526	0.523	0.559	0.504	0.359
HCC-366	0.352	0.374	0.14	1.07	1.06	1.07	0.755	0.459	0.605	0.455	0.832	0.839	0.872	0.915	0.923	0.621
HCC-827	0.478	0.529	0.442	0.206	0.181	0.178	0.174	0.218	0.978	0.973	1.06	1.06	1.06	1.16	1.13	1.01
HOP-62	0.404	0.338	0.377	1.03	0.909	1.05	0.768	0.821	0.97	0.755	0.891	1.14	1.14	1.26	0.952	0.963
LC-2-ad	0.881	0.926	0.669	0.984	1.02	1.06	0.863	0.198	0.842	0.218	0.858	0.994	0.883	0.921	0.828	0.771
LCLC-97TM1	0.202	0.219	0.09	0.905	0.766	1.13	1.01	0.807	0.136	0.136	0.942	0.96	0.899	0.956	0.983	0.189
LK-2	–	0.673	0.326	0.981	0.888	0.973	0.887	0.559	0.708	0.623	1.21	1.21	1.29	1.06	1.64	0.659
LOU-NH91	0.783	0.714	0.626	0.843	0.772	0.764	0.825	0.641	0.936	0.665	0.942	0.884	0.863	0.9	0.925	0.832
LU99A	0.579	0.616	0.349	1.2	0.889	0.987	0.861	0.321	0.614	0.445	0.727	0.853	0.701	0.843	0.789	0.558
LXF-289	0.608	0.7	0.624	0.895	0.915	0.97	0.915	0.694	0.937	0.822	0.898	1.02	0.988	1.01	0.826	1.01
NCI-H23	0.493	0.333	0.208	1.08	0.963	1.19	0.918	0.559	0.533	0.509	0.83	0.995	0.873	1.02	1.07	0.584
NCI-H322M	0.589	0.447	0.294	0.618	0.648	0.521	0.575	0.603	0.805	0.872	0.887	0.983	0.838	0.972	0.982	0.862
NCI-H358	0.147	0.107	0.0912	0.553	0.397	0.517	0.489	0.29	0.73	0.274	0.635	0.677	0.776	0.772	0.642	0.488

Cell Line	relative viability (NVP-TAE684 + Trametinib; first compound 0.2 µM)	relative viability (NVP-TAE684 + Trametinib; first compound 0.6325 µM)	relative viability (NVP-TAE684 + Trametinib; first compound 2 µM)	relative viability (CUDC-101 + Lapatinib; first compound 0.01 µM)	relative viability (CUDC-101 + Lapatinib; first compound 0.03162 µM)	relative viability (CUDC-101 + Lapatinib; first compound 0.1 µM)	relative viability (CUDC-101 + Lapatinib; first compound 0.3162 µM)	relative viability (CUDC-101 + Lapatinib; first compound 1 µM)	relative viability (NVP-TAE684 + Linsitinib; first compound 0.2 µM)	relative viability (NVP-TAE684 + Linsitinib; first compound 2 µM)	relative viability ([1]; first compound 0.005 µM)	relative viability ([1]; first compound 0.01581 µM)	relative viability ([1]; first compound 0.05 µM)	relative viability ([1]; first compound 0.1581 µM)	relative viability ([1]; first compound 0.5 µM)	relative viability (NVP-TAE684 + Linsitinib; first compound 0.6325 µM)
NCI-H460	0.173	0.16	0.0273	1.04	0.994	0.873	0.919	0.339	0.732	0.298	0.969	1.15	1.06	1.08	1.08	0.911
NCI-H520	0.73	0.695	0.204	0.94	–	0.879	0.76	0.323	0.911	0.45	0.718	0.983	0.853	0.878	0.842	0.986
NCI-H596	0.712	0.581	0.688	1.04	1.04	1.03	1.08	0.982	1.06	0.688	0.656	0.955	0.741	0.853	0.971	–
NCI-H647	0.483	0.489	0.216	1.25	1.1	1.02	0.863	0.271	1.49	0.522	1.08	1.27	1.28	1.32	1.14	1.09
NCI-H650	1.08	0.951	0.726	0.947	1.1	0.899	0.582	0.405	0.982	0.652	0.946	–	0.993	0.942	1.1	0.638
NCI-H661	0.552	0.616	0.563	0.603	0.449	0.525	0.594	0.506	0.454	0.625	1.07	1.04	0.943	1.03	1.11	0.58
NCI-H727	0.406	0.349	0.308	0.825	0.531	0.844	0.801	0.678	0.331	0.216	1.07	0.73	0.922	1.03	0.809	0.284
NCI-H838	0.566	0.407	0.202	0.934	1	1.03	1.11	0.552	1.22	0.372	0.981	1.04	0.99	0.928	0.926	0.955
NCI-H1355	0.399	0.398	0.3	1.04	0.825	1.05	0.895	0.679	0.724	0.535	0.929	1.06	0.96	1.08	0.923	0.826
NCI-H1395	1.09	1.15	0.944	1.04	1.13	1.05	0.862	0.661	1.3	0.862	0.868	0.912	1.05	0.996	0.967	0.766
NCI-H1437	0.523	0.444	0.225	0.884	0.792	0.773	0.796	0.355	1.01	0.545	1.26	1.3	1.27	1.32	1.23	1.02
NCI-H1651	–	0.86	0.771	0.869	0.813	0.884	0.771	0.325	1.02	0.935	0.687	0.872	0.774	0.801	0.757	0.98
NCI-H1666	0.818	0.836	0.714	0.64	0.692	0.583	0.664	0.38	0.828	0.591	0.897	0.951	0.971	0.981	0.838	0.605
NCI-H1734	0.696	0.673	0.517	1.1	0.988	1.07	1.09	0.841	0.849	0.818	–	0.8	0.913	0.993	0.758	0.92
NCI-H1755	0.769	0.846	0.729	1.09	1.04	1.02	1.1	0.798	1.05	–	0.915	0.991	0.945	0.936	0.939	1.05
NCI-H1793	0.468	0.303	0.414	0.813	0.63	0.731	0.718	0.485	0.734	0.9	0.714	0.71	0.58	0.775	0.679	0.857
NCI-H1915	0.298	0.304	0.507	1.02	1.04	0.977	0.911	0.837	1.16	1.01	1.08	1.11	1.1	1.3	1.05	1.18
NCI-H1944	0.41	0.41	0.364	0.777	0.747	0.799	0.709	0.5	1.16	1.3	0.875	0.91	0.853	0.929	0.885	1.17
NCI-H1975	0.325	0.335	0.215	1.02	0.913	0.844	0.82	0.411	1.01	0.269	0.779	0.897	0.846	1.08	0.73	0.97
